Measurements as given in patent US8106197B2, “Aminoheteroaryl compounds as protein kinase inhibitors” (Pfizer Inc., priority 2003, dated 2012).

Molecular target: T1, HGFR (Homo sapiens, UniProt P08581)
T1 construct: purchased Upstate 14-526
Test: HGFR continuous-coupled spectrophotometric assay
Type: biochemical
Conditions: for inhibition at 1 µM: Table 6, percent c-MET inhibition at 1 μM, read-out: % inhibition; for I(%): Table 3, Ki(μM) or I(%), test concentration not given; for inhibition at 0.05 µM: Table 5, percent c-MET inhibition at 50 nM

T1 sequence (P08581 974-1390 limits assumed): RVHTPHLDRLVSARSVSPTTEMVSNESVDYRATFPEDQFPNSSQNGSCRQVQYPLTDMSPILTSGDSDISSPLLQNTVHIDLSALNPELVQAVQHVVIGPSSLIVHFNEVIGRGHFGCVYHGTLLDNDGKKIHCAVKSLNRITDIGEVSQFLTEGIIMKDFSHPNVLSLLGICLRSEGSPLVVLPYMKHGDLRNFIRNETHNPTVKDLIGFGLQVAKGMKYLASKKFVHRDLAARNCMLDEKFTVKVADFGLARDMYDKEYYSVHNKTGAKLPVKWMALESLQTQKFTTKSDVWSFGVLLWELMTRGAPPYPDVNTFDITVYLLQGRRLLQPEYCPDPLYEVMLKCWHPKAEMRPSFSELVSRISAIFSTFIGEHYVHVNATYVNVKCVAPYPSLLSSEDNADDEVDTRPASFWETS

Structure (SMILES)	inhibition at 1 µM [%]	% inhibition	further results
Nc1ncc(C(=O)N2CCCC2c2ccncc2)cc1OCc1c(Cl)cccc1Cl (stereo not shown)	19		
Nc1ncc(C(=O)NCc2cc3cc[nH]c3cn2)cc1OCc1c(Cl)cccc1Cl	28		
CCc1ccc(COCC2CCN(C(=O)c3cnc(N)c(OCc4c(Cl)cccc4Cl)c3)CC2)nc1	41		
Nc1ncc(-c2ccc(C(=O)N3CCC(N4CCCC4)CC3)cc2)cc1OCc1ccc(S(N)(=O)=O)cc1		% inhibition = 17	
Cc1nc[nH]c1CN1CCC2(CC1)CC(NC(=O)c1cnc(N)c(OCc3c(Cl)cccc3Cl)c1)CO2 (stereo not shown)	30		
Cc1cc(=O)n2nc(COc3cc(-c4ccc(C(=O)N5CCC(N6CCCC6)CC5)cc4)cnc3N)nc2[nH]1		% inhibition = 18	
Cc1cc(C)nc(COc2cc(-c3ccc(C(=O)N4CCC(N5CCCC5)CC4)cc3)cnc2N)n1		% inhibition = 16	
Nc1ncc(C(=O)NC[C@]2(O)CC[C@H](c3ccccc3)CC2)cc1OCc1c(Cl)cccc1Cl	15		
COc1c(C)cnc(COc2cc(-c3ccc(C(=O)N4CCC(N5CCCC5)CC4)cc3)cnc2N)c1C		% inhibition = 20	
Nc1ncc(C(=O)NC2COC3(CCN(Cc4ccncc4)CC3)C2)cc1OCc1c(Cl)cccc1Cl (stereo not shown)	20		
Cc1ccccc1COc1cc(-c2ccc(C(=O)N3CC(C)NC(C)C3)cc2)cnc1N (stereo not shown) [Example I-624, {4-[6-Amino-5-(2-methyl-benzyloxy)-pyridin-3-yl]-phenyl}-(3,5-dimethyl-piperazin-1-yl)-methanone]			I(%): 0%
Nc1ncc(-c2ccc(C(=O)N3CCC(N4CCCC4)CC3)cc2)cc1OCc1ccc(C(=O)NCCN2CCCC2)cc1		% inhibition = 10	
N#Cc1cccc(COc2cc(-c3ccc(C(=O)N4CCC(N5CCCC5)CC4)cc3)cnc2N)c1		% inhibition = 12	
Nc1ncc(-c2ccc(C(=O)N3CCC(N4CCCC4)CC3)cc2)cc1OCc1cn2ccccc2n1		% inhibition = 11	
Nc1ncc(C(=O)NCc2ccc(C(F)(F)F)nc2)cc1OCc1c(Cl)cccc1Cl	17		
Cc1cc(COc2cc(-c3ccc(C(=O)N4CCC(N5CCCC5)CC4)cc3)cnc2N)no1		% inhibition = 16	
Nc1ncc(C(=O)N2CCCC(N3CCOCC3)CC2)cc1OCc1c(Cl)cccc1Cl (stereo not shown)	18		
Nc1ncc(-c2ccc(C(=O)N3CCC(N4CCCC4)CC3)cc2)cc1OCc1csc(-c2ccc(C(F)(F)F)cc2)n1		% inhibition = 21	
CCOC(=O)CCNS(=O)(=O)c1ccc(COc2cc(-c3ccc(C(=O)N4CCC(N5CCCC5)CC4)cc3)cnc2N)cc1		% inhibition = 15	

Structure (SMILES)	inhibition at 1 µM [%]	% inhibition	further results
Nc1ncc(-c2ccc(C(=O)N3CCC(N4CCCC4)CC3)cc2)cc1OCc1cccc(C(=O)NCc2ccncc2)c1		% inhibition = 10	
Nc1ncc(-c2ccc(C(=O)N3CCC(N4CCCC4)CC3)cc2)cc1OCc1nc(-c2ccccc2)n[nH]1		% inhibition = 2	
Nc1ncc(C(=O)NCCCN2CCOCC2)cc1OCc1c(Cl)cccc1Cl	26		
Cc1cnccc1COc1cc(-c2ccc(C(=O)N3CCC(N4CCCC4)CC3)cc2)cnc1N		% inhibition = 11	
CC(=O)NC1CCN(C(=O)c2ccc(-c3cnc(N)c(OC(C)c4c(Cl)ccc(F)c4Cl)c3)cc2)C1 (stereo not shown)			inhibition at 0.05 µM: 77%
Nc1ncc(-c2ccc(C(=O)N3CCC(N4CCCC4)CC3)cc2)cc1OCc1cccnc1		% inhibition = 17	
CC(Oc1cc(-c2ccc(C(=O)N3CCNC(=O)C3C)cc2)cnc1N)c1c(Cl)ccc(F)c1Cl (stereo not shown)			inhibition at 0.05 µM: 86%
CN(CCc1ccccn1)CC1(O)CCN(C(=O)c2cnc(N)c(OCc3c(Cl)cccc3Cl)c2)C1 (stereo not shown)	18		
CC(Cc1ccc(Cl)cc1)NC(=O)c1ccc(-c2cnc(N)c(OC(C)c3c(Cl)ccc(F)c3Cl)c2)cc1 (stereo not shown)			inhibition at 0.05 µM: 58%
Cc1noc([C@H]2CC[C@H](CNC(=O)c3ccc(-c4cnc(N)c(OC(C)c5c(Cl)ccc(F)c5Cl)c4)cc3)CC2)n1 (stereo partly shown)			inhibition at 0.05 µM: 51%
CC(Oc1cc(-c2ccc(C(=O)N3C[C@@H](C)N[C@@H](C)C3)cc2)cnc1N)c1ccccc1C(F)(F)F (stereo partly shown) [Example I-616]			I(%): 3%
CC(Oc1cc(-c2ccc(C(=O)N3CCC(N4CCCC4)CC3)cc2)cnc1N)c1ccc(C(=O)NCCc2cccc(O)c2)cc1 (stereo not shown) [Example I-629, 4-(1-{2-Amino-5-[4-(4-pyrrolidin-1-yl-piperidine-1-carbonyl)-phenyl]-pyridin-3-yloxy}-ethyl)-[2-(3-hydroxy-phenyl)-ethyl]-benzamide]			I(%): 7%
Nc1ncc(-c2ccc(C(=O)N3CCC(N4CCCC4)CC3)cc2)cc1OCc1ccc(C(=O)c2ccccc2)cc1		% inhibition = 31	
CCC(C)NC(=O)c1ccc(-c2cnc(N)c(OC(C)c3c(Cl)ccc(F)c3Cl)c2)cc1 (stereo not shown)			inhibition at 0.05 µM: 64%
Cc1ccc(N2CCN(CCCCNC(=O)c3cnc(N)c(OCc4c(Cl)cccc4Cl)c3)CC2)cc1	15		
Cn1nc(-c2ccccc2)nc1COc1cc(-c2ccc(C(=O)N3CCC(N4CCCC4)CC3)cc2)cnc1N		% inhibition = 5	
Nc1ncc(C(=O)NCC(F)(F)F)cc1OCc1c(Cl)cccc1Cl	30		
Nc1ncc(-c2ccc(C(=O)N3CCC(N4CCCC4)CC3)cc2)cc1OCc1nc(-c2cccc(C(=O)Nc3ccc(F)cc3)c2)no1		% inhibition = 64	
Nc1ncc(-c2ccc(C(=O)N3CCC(N4CCCC4)CC3)cc2)cc1OCc1ccc(S(=O)(=O)c2ccc(F)cc2)cc1		% inhibition = 13	

Further lines, with some results ahead:

inhibition at 1 µM [%]	% inhibition	Structure (SMILES)	further results
	% inhibition = 15	COC(=O)c1ccc(COc2cc(-c3ccc(C(=O)N4CCC(N5CCCC5)CC4)cc3)cnc2N)c(OC)c1	
	% inhibition = 50	Nc1ncc(-c2ccc(C(=O)N3CCC(N4CCCC4)CC3)cc2)cc1OCc1c(F)ccc(F)c1Cl	
	% inhibition = 29	Cc1ccc(F)cc1COc1cc(-c2ccc(C(=O)N3CCC(N4CCCC4)CC3)cc2)cnc1N	
	% inhibition = 30	Nc1ncc(-c2ccc(C(=O)N3CCC(N4CCCC4)CC3)cc2)cc1OCc1c(F)ccc(F)c1F	
34		Nc1ncc(C(=O)NCCc2ccc(O)cc2)cc1OCc1c(Cl)cccc1Cl	
59		COc1ccc(CNC(=O)c2cnc(N)c(OCc3c(Cl)cccc3Cl)c2)c(OC)c1	
	% inhibition = 8	Nc1ncc(-c2ccc(C(=O)N3CCC(N4CCCC4)CC3)cc2)cc1OCc1ncc(C(F)(F)F)cc1Cl	
26		Nc1ncc(C(=O)NCc2ccc(OC(F)F)cc2)cc1OCc1c(Cl)cccc1Cl	
	% inhibition = 51	Cc1ccc(F)c(COc2cc(-c3ccc(C(=O)N4CCC(N5CCCC5)CC4)cc3)cnc2N)c1F	
36		Nc1ncc(C(=O)NCCc2c[nH]c3ccc(Cl)cc23)cc1OCc1c(Cl)cccc1Cl	
	% inhibition = 9	CN(C)CCNC(=O)c1ccc(COc2cc(-c3ccc(C(=O)N4CCC(N5CCCC5)CC4)cc3)cnc2N)cc1	
